“And” between values parts separate entries of the source, which are not always exact repeats. Equal values may be shown once. Read-outs that look alike come from different tables or passages of the source.
What was measured:
Epithelial cells = assay: Labelling of cells using compounds (staining/uptake); assay type: cell-based
From the text: (§1) 2. Labelling of Cells Using Compounds Useful in Methods of the Invention

WBCs [1] = assay: Immobilization of cells: recovery rate of cells on SA (streptavidin) plate or untreated plate (Example 3); assay type: cell-based
Experimental: The following applies for modular description of the compounds below: X=hydrophobic moiety, […]=fluorescein In the following experiment, the recovery rate of cells was determined.

WBC = WBC recovery rate after centrifugation (cell stabilization, Example 5); assay type: cell-based; conditions: 300×g; for WBC recovery rate after centrifugation at different points of time, dependence on concentration: 0.35 nmol molecule A, 100 nmol and 0.5 nmol molecule B
Experimental: A) WBC Recovery Rate after Centrifugation and Cell Immobilization Using Different Molecules
Centrifugation characteristics: 10 min, 300×g.
B) WBC Recovery Rate after Centrifugation Using Different Compounds—Different Points of Time
Centrifugation characteristics: 10 min, 300×g. A: Choleseryl-TEG-Cholesteryl-TEG-(SpacerC18)7-Fluos-Biotin-TEG.
C) WBC Recovery Rate after Centrifugation—Different Experimenters
Centrifugation characteristics: 10 min, 300×g. Molecule: Cholesteryl-TEG-Cholesteryl-TEG-(SpacerC18)7-Fluos-Biotin-TEG.
D) WBC Recovery Rate after Centrifugation—Different Points of Time and Centrifugation Settings
Centrifugation characteristics: 20 min, 300×g.

WBCs [2] = assay: Labelling of cells using compounds (staining/uptake); assay type: cell-based
From the text: as §1

white blood cells (WBCs) = system: white blood cells (WBCs)
Experimental: In particular, the performance of a single cholesterol-molecule and different dual-linker molecules (i.e. containing two hydrophobic moieties) was tested. In detail, immobilization of white blood cells (WBCs) on a Streptavidin-coated surface using different linker molecules was tested on a 12-well plate: 300 000 WBCs/well. This was followed by the measurement of the cell recovery rate after immobilization and washing of the cells using the Cellavista instrument (10× Nuclei Operator s9s5).

[3] = cells treated with compound, streptavidin plate, repeated experiments
[4] = Sample 1, first block (concentration not given), 300 000 WBCs/well
[5] = Sample 1, compound concentration: 1 nmol/10e6 WBCs
[6] = Sample 1, compound concentration: 1 nmol/10e6 WBCs, 300 000 WBCs/well
[7] = Sample 2, compound concentration: 100 pmol/10e6 WBCs
[8] = Sample 2, compound concentration: 100 pmol/10e6 WBCs, 300 000 WBCs/well
[9] = Sample 2, compound concentration: 1 nmol/10e6 WBCs
[10] = Sample 2, compound concentration: 1 nmol/10e6 WBCs, 300 000 WBCs/well

CCCCCCCCCCCCCCCCCCCCCCN1/C(=C/C=C/c2oc3ccccc3[n+]2CCC)Oc2ccccc21.[I-] [PKH2]
Labelling (staining/uptake) of cells (Epithelial cells): ✓ not all

CCCCCCCC/C=C\CCCCCCCC(=O)OC[C@H](COP(=O)([O-])OCCNC(=O)CCCCCNC(=O)CCCC[C@@H]1SC[C@@H]2NC(=O)N[C@@H]21)OC(=O)CCCCCCC/C=C\CCCCCCCC.[Na+]
Recovery Rate (WBCs [1]; 10 pmol/10e6 cells): 66.30% and 74.40% | Recovery Rate (WBCs [1]; 500 pmol/10e6 cells): 80.16% and 95.94% | Recovery Rate (WBCs [1]; 1 nmol/10e6 cells): 95.80% and 101.76% | Recovery Rate (WBCs [1]; 10 nmol/10e6 cells): 89.19% and 105.12%

5′-Myristic acid-CholesterylTEG-(SpacerC18)7-Fluos-BiotinTEG-3′ [29.891227]
Recovery Rate (WBCs [1]; WBCs, 350 pmol/10e6 cells): 64.9% and 69.6% and 77.8%

5′-CholesterylTEG-SpacerC12-CholesterylTEG-(SpacerC18)7-Fluos-BiotinTEG-3 [29.891224]
Recovery Rate (WBCs [1]; WBCs, 350 pmol/10e6 cells): 119.4% and 60.6% and 64.4% and 70.3% and 78.1%

5′-Myristic acid-Myristic acid-PEG2000-Fluos-BiotinTEG-3′ [29.891194]
Recovery Rate (WBCs [1]; WBCs, 350 pmol/10e6 cells): 21-26%

5′-Myristic acid-Myristic acid-Myristic acid-(SpacerC18)7-Fluos-BiotinTEG-3′ [29.891221]
Recovery Rate (WBCs [1]; WBCs, 350 pmol/10e6 cells): 46.0% and 79.4% and 68.8% and 76.5% and 83.4%

5′-CholesterylTEG-CholesterylTEG-(SpacerC18)7-Fluos-BiotinTEG-3′ [29.891222]
WBC recovery rate after centrifugation, different experimenters, dependence on concentration (WBC; Centrifugation: 10 min): the higher the molecule concentration, the higher the cell recovery rate after centrifugation | WBC recovery rate after centrifugation at different points of time, dependence on concentration (WBC; Centrifugation: 10 min): The higher the molecule concentration, the higher the cell recovery rate after centrifugation | cell stabilization, dependence on experimenter (WBC; Experimenters 1, 2 and 3, 10 min): cell stabilization is independent on the experimenter

Biotin-PEG-Lysin-(C18)2 [HH1755]
WBC recovery rate after centrifugation, dependence on concentration (WBC; Centrifugation: 10 min): The higher the concentration of the molecule, the higher the cell recovery rate after centrifugation

Biotin-PEG-Lysin-(C18)2 [HH1749]
WBC recovery rate after centrifugation, dependence on concentration (WBC; Centrifugation: 10 min): The higher the concentration of the molecule, the higher the cell recovery rate after centrifugation

5′-Myristic acid-SpacerC12-Myristic acid-(SpacerC18)7-Fluos-BiotinTEG-3 [29.891219]
Recovery Rate (WBCs [1]; WBCs, 350 pmol/10e6 cells): 46.3% and 39.4% and 53.7% and 56.6%

Biotin-PEG-Lysin-(C18)2 [listing 1 of 2 here]
enables cell immobilization within (WBC; Centrifugation: 10 min): ≤ 3.5 h | WBC recovery rate after centrifugation at different points of time, dependence on concentration (WBC; Centrifugation: 10 min): The higher the molecule concentration, the higher the cell recovery rate after centrifugation

5′-Myristic acid-Myristic acid-SpacerC18-Fluos-BiotinTEG-3′ [29.891213]
Recovery Rate (WBCs [1]; WBCs, 350 pmol/10e6 cells): 67.4% and 61.9% and 80.2% and 70.4% | Recovery rate treated cells (SA-plate) (WBCs [1]; [3]): 67.4%

5′-Myristic acid-SpacerC9-Myristic acid-PEG2000-Fluos-BiotinTEG-3′ [29.891197]
staining (WBCs [2]; remark in the Recovery Rate column): not good

5′-CholesterylTEG-CholesterylTEG-PEG2000-BiotinTEG-3′ [29.891137]
Recovery Rate (WBCs [1]; WBCs, concentration not given): 77.1%

5′-(Cholesterol-TEG)1-Doubler-dT-Biotin-3′ [29.891272]
Recovery Rate (white blood cells (WBCs); [4]): 56.49% | cells counted per well (white blood cells (WBCs); [4]): 147132 and 179643 and 181620 | Recovery Rate (white blood cells (WBCs); [5]): 72.13% | cells counted per well (white blood cells (WBCs); [6]): 199973 and 220701 and 228481 | Mean (cells counted per well) (white blood cells (WBCs); [7]): 186316.33 | Recovery Rate (white blood cells (WBCs); [7]): 62.11% | cells counted per well (white blood cells (WBCs); [8]): 161504 and 201424 and 196021 | Mean (cells counted per well) (white blood cells (WBCs); [9]): 247418.33 | Recovery Rate (white blood cells (WBCs); [9]): 82.47% | cells counted per well (white blood cells (WBCs); [10]): 241232 and 254894 and 246129 | cell immobilization characteristics, mono linker vs dual linker (white blood cells (WBCs); conclusion of Example 4): shows similar cell immobilization characteristics compared dual linker molecules | Recovery Rate (WBCs [1]; 10 pmol/10e6 cells): 65.03% | Recovery Rate (WBCs [1]; 100 pmol/10e6 cells): 83.08% and 56.49% and 62.11% and 82.01% | Recovery Rate (WBCs [1]; 1 nmol/10e6 cells): 87.93% and 72.13% and 82.47% | Recovery Rate (WBCs [1]; 10 nmol/10e6 cells): Cells lysed

5′-Myristic acid-SpacerC9-Myristic acid-(SpacerC18)7-Fluos-BiotinTEG-3′ [29.891218]
Recovery Rate (WBCs [1]; WBCs, 350 pmol/10e6 cells): 50.3% and 55.1%

5′-CholesterylTEG-SpacerC18-CholesterylTEG-(SpacerC18)7-Fluos-BiotinTEG-3′ [29.891225]
Recovery Rate (WBCs [1]; WBCs, 350 pmol/10e6 cells): 38.8% and 46.5%

Sulfo-JA133-phenylboronic acid [15.000078]
Labelling (staining/uptake) of cells (Epithelial cells): ✓ | Labelling (staining/uptake) of cells (WBCs [2]): ✓ not all

Biotin-PEG-Lysin-(C18)2 [listing 2 of 2 here]
Recovery Rate (WBCs [1]; 10 pmol/10e6 cells): 4.8% | Recovery Rate (WBCs [1]; 100 pmol/10e6 cells): 6.8% | Recovery Rate (WBCs [1]; 1 nmol/10e6 cells): 21.8% and 29.6% | Recovery Rate (WBCs [1]; 10 nmol/10e6 cells): 60.6% and 43.0% and 68.5% | Recovery Rate (WBCs [1]; WBCs, 350 pmol/10e6 cells, 0.00003% Tween22): 15.0% | Recovery Rate (WBCs [1]; WBCs, 350 pmol/10e6 cells, 0.0001% Tween21): 10.0% | Recovery Rate (WBCs [1]; WBCs, 350 pmol/10e6 cells, 0.0003% Tween20): 10.0% | Recovery Rate (WBCs [1]; WBCs, 350 pmol/10e6 cells, 0.001% Tween20): 9.0% | Recovery Rate (WBCs [1]; WBCs, 0.5 nmol/10e6 cells): 25.0% and 27.0% and 38.0% | Recovery Rate (WBCs [1]; WBCs, 50 nmol/10e6 cells): 69.0%

Biotin-PEG-Lys-(C14)2 [15.260268]
Recovery Rate (WBCs [1]; 1.77 nmol/10e6 Cells): 85.72 | Recovery rate treated cells (SA-plate) (WBCs [1]; 2.16 μg/2 × 10e6 WBCs): 39.6% | Recovery rate treated cells (SA-plate) (WBCs [1]; 21.6 μg/2 × 10e6 WBCs): 46.7% | Recovery rate treated cells (SA-plate) (WBCs [1]; 216 μg/2 × 10e6 WBCs): 51.8% | Recovery Rate (WBCs [1]; WBCs, concentration not given): 52-86%

5′-Myristic acid-SpacerC18-Myristic acid-(SpacerC18)7-Fluos-BiotinTEG-3′ [29.891220]
Recovery Rate (WBCs [1]; WBCs, 350 pmol/10e6 cells): 35.8% and 41.4% and 55.9% and 63.5%

Biotin-PEG-Lysin-(C18)2 [HH1750]
WBC recovery rate after centrifugation, dependence on concentration (WBC; Centrifugation: 10 min): The higher the concentration of the molecule, the higher the cell recovery rate after centrifugation

CCCCCCCCCCCCCCCC(=O)OC[C@H](COP(=O)([O-])OCCNC(=O)CCCCCNC(=O)CCCC[C@@H]1SC[C@@H]2NC(=O)N[C@@H]21)OC(=O)CCCCCCCCCCCCCCC.[Na+]
Recovery Rate (WBCs [1]; 10 pmol/10e6 cells): 54.30% and 45.40% | Recovery Rate (WBCs [1]; 100 pmol/10e6 cells): 72.20% and 86.10% | Recovery Rate (WBCs [1]; 300 pmol/10e6 cells): 51.80% and 55.90% and 52.60% and 73.07% and 61.27% and 71.40% | Recovery Rate (WBCs [1]; 1 nmol/10e6 cells): 84.90% and 89.30%

5′-Myristic acid-Myristic acid-(SpacerC18)7-Fluos-BiotinTEG-3′ [29.891214]
Recovery Rate (WBCs [1]; WBCs, 350 pmol/10e6 cells): 78.9% and 68.7% and 90.5% and 81.1% and 65.9% and 84.9% and 85.1% | Recovery rate treated cells (SA-plate) (WBCs [1]; [3]): 78.9%

5′-(Cholesteryl-TEG)2-PEG2000-Fluos-Biotin_TEG-3′ INVERS [29.891250]
Recovery Rate (WBCs [1]; 100 pmol/10e6 cells): 48.66% | Recovery Rate (WBCs [1]; 1 nmol/10e6 cells): 81.29%

5′-(Cholesteryl-TEG)2-Spacer C12-dT-Biotin_TEG-3′ INVERS [29.891253]
Recovery Rate (white blood cells (WBCs); [4]): 41.44% | cells counted per well (white blood cells (WBCs); [4]): 105061 and 128195 and 139678 | Recovery Rate (white blood cells (WBCs); [5]): 72.13% | cells counted per well (white blood cells (WBCs); [6]): 218861 and 221471 and 208802 | Mean (cells counted per well) (white blood cells (WBCs); [7]): 187757.67 | Recovery Rate (white blood cells (WBCs); [7]): 62.59% | cells counted per well (white blood cells (WBCs); [8]): 178919 and 197130 and 187224 | Mean (cells counted per well) (white blood cells (WBCs); [9]): 237052.33 | Recovery Rate (white blood cells (WBCs); [9]): 79.02% | cells counted per well (white blood cells (WBCs); [10]): 239105 and 240632 and 231420 | Recovery Rate (WBCs [1]; 10 pmol/10e6 cells): 47.42% | Recovery Rate (WBCs [1]; 100 pmol/10e6 cells): 73.46% and 41.44% and 62.59% and 71.41% | Recovery Rate (WBCs [1]; 1 nmol/10e6 cells): 96.84% and 72.13% and 79.02% and 86.21% | Recovery Rate (WBCs [1]; 10 nmol/10e6 cells): 102.36%

Source: US11965886B2, “Method of immobilizing a cell on a support using compounds comprising a polyethylene glycol moiety” (Roche Diagnostics Operations, Inc., priority 2013, dated 2024)
